According to PubChem BioAssay (NCI):
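Interpolation was linear, between the two tested concentrations surrounding the appropriate level; five concentrations were tested over 48 hours in 96-well plates. The concentration for full growth arrest is given as TGI.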

Columns and labels:
Experiment in all cases: NCI anticancer screen, dose series, 48 h
[1] = tested on: NCI-H522 lung
[2] = tested on: ACHN renal
[3] = tested on: OVCAR-8 ovarian
[4] = tested on: SW-620 colon
[5] = tested on: UO-31 renal
[6] = tested on: HOP-62 NSCLC
[7] = tested on: IGROV1 ovarian
[8] = tested on: LOX IMVI melanoma
[9] = tested on: SK-MEL-5 melanoma
[10] = tested on: COLO 205 colon
[11] = tested on: A498 renal
[12] = tested on: HT29 colon
[13] = tested on: M19-MEL melanoma
[14] = tested on: OVCAR-4 ovarian
[15] = tested on: SK-MEL-28 melanoma
[16] = tested on: A549 NSCLC
[17] = tested on: DMS 114 small cell lung
[18] = tested on: TK-10 renal
[19] = tested on: RXF 393 renal
[20] = tested on: HL-60(TB) leukemia
[21] = tested on: M14 melanoma
[22] = tested on: 786-0 renal
[23] = tested on: KM20L2 colon
[24] = tested on: OVCAR-3 ovarian
[25] = tested on: DMS 273 small cell lung
[26] = tested on: UACC-257 melanoma
[27] = tested on: OVCAR-5 ovarian
[28] = tested on: RXF-631 renal
[29] = tested on: XF 498 CNS
[30] = tested on: EKVX NSCLC
[31] = tested on: UACC-62 melanoma
[32] = tested on: KM12 colon
[33] = tested on: SNB-75 CNS
[34] = tested on: SF-539 CNS
[35] = tested on: HCT-15 colon
[36] = tested on: NCI-H23 lung
[37] = tested on: LXFL 529 NSCLC
[38] = tested on: SF-295 CNS
[39] = tested on: RPMI-8226 leukemia
[40] = tested on: SNB-19 CNS
[41] = tested on: SK-OV-3 ovarian
[42] = tested on: CAKI-1 renal
[43] = tested on: K-562 leukemia
[44] = tested on: SN12C renal
[45] = tested on: MOLT-4 leukemia
[46] = tested on: MALME-3M melanoma
[47] = tested on: SF-268 CNS
[48] = tested on: HOP-18 NSCLC
[49] = tested on: U251 CNS
[50] = tested on: SK-MEL-2 melanoma
[51] = tested on: NCI-H460 lung
[52] = tested on: CCRF-CEM leukemia
[53] = tested on: NCI-H226 lung
[54] = tested on: DLD-1 colon
[55] = tested on: HCT-116 colon
[56] = tested on: SR leukemia
[57] = tested on: HCC-2998 colon
[58] = tested on: DU-145 prostate
[59] = tested on: MDA-N
[60] = tested on: T-47D breast
[61] = tested on: HS 578T breast
[62] = tested on: MDA-MB-231 breast
[63] = tested on: BT-549 breast
[64] = tested on: MDA-MB-435
[65] = tested on: PC-3 prostate
[66] = tested on: NCI/ADR-RES ovarian
[67] = tested on: MCF7 breast
[68] = tested on: HOP-92 NSCLC
[69] = tested on: SNB-78 CNS

Measured: TGI

C=CCN(N=O)C(=O)N(CCC)CCCC(NC(C)=O)C(=O)NCc1ccccc1 (stereo not drawn)
not listed: [53] | [54] | [55] | [56] | [57] | [58] | [59] | [60] | [61] | [62] | [63] | [64] | [65] | [66] | [67] | [68] | [69]
> 100 µM: all other assays above

CCCN(CCC)c1c([N+](=O)[O-])cc(S(N)(=O)=O)cc1[N+](=O)[O-]
46.5 µM: [52]
19.6 µM: [7]
37.9 µM: [27]
31.6 µM: [8] | [44]
34.9 µM: [54]
32.3 µM: [36] | [38]
34.8 µM: [5]
35.7 µM: [43]
34 µM: [12]
33.2 µM: [57]
31.5 µM: [1]
57.4 µM: [56]
32 µM: [6]
76.4 µM: [39]
33 µM: [46]
30 µM: [37]
40.6 µM: [13]
26.9 µM: [14] | [49]
41.3 µM: [40]
36.3 µM: [15]
36.2 µM: [48]
32.4 µM: [33]
26.4 µM: [42]
36 µM: [4]
40.3 µM: [17]
30.4 µM: [22]
45.4 µM: [45]
30.2 µM: [29]
33.5 µM: [9]
37.4 µM: [23]
42.7 µM: [53]
37.5 µM: [30]
33.8 µM: [25] | [55]
34.3 µM: [32]
35.9 µM: [34]
32.2 µM: [35]
35.5 µM: [28]
31.8 µM: [2] | [24] | [41]
35.1 µM: [3]
37.2 µM: [26]
30.9 µM: [21]
29.4 µM: [51]
43.1 µM: [10]
32.8 µM: [16] | [31] | [47]
30.5 µM: [50]

COc1ccc(N=Cc2ccc(N(CCC#N)CCC#N)cc2)cc1
78.7 µM: [34]
> 89 µM: [18]
> 91.8 µM: [13]
> 84.2 µM: [50]
> 84.5 µM: [37]
> 88.1 µM: [57]
not listed: [28]
> 100 µM: all other assays above

Cn1c(=O)c2c(nc3n2CCC(=O)N3)n(C)c1=O
not listed: [21] | [24] | [29] | [33] | [35] | [39] | [48] | [55] | [57] | [58] | [59] | [60] | [61] | [62] | [63] | [64] | [65] | [66] | [67]
> 100 µM: all other assays above
